Experimental data from patent US20050096327A1, “Novel norepinephrine reuptake inhibitors for the treatment of central nervous system disorders” (priority 2003, published 2005).

Legend:
[1] = molecular target: T1, human norepinephrine transporter (Homo sapiens, UniProt P23975); assay: hNET receptor binding ([125I]-RTI-55, membranes of transfected HEK-293 cells); conditions: 50 pM [125I]-RTI-55, 90 min room temperature; IC50 converted by Cheng-Prusoff
T1 construct: host or cells: HEK-293
Procedure: (§1) Cell pastes of HEK-293 cells transfected with the human norepinephrine transporter were supplied by the Pfizer Ann Arbor Protein Expression and Production group. Pellets were resuspended in 400 to 700 ml of Krebs-HEPES assay buffer (25 mM HEPES, 122 mM NaCl, 3 mM KCl, 1.2 mM MgSO4, 1.3 mM CaCl2, and 11 mM glucose, pH 7.4) with a Polytron homogenizer at setting 7 for 30 sec. Aliquots of membranes (5 mg/ml protein) were stored in liquid nitrogen until used.
The binding assay was set up in Beckman deep-well polypropylene plates with a total volume of 250 μl containing: drug (10^−5M to 10^−12M), cell membranes, and 50 pM [^125I]-RTI-55 (Perkin Elmer, NEX-272; specific activity 2200 Ci/mmol). The reaction was incubated by gentle agitation for 90 min at room temperature and was terminated by filtration through Whatman GF/C filter plates using a Brandel 96-well plate harvester. Scintillation fluid (100 μl) was added to each well, and bound [^125I]-RTI-55 was determined using a Wallac Trilux Beta Plate Counter. Test compounds were run in duplicate, and specific binding was defined as the difference between binding in the presence and absence of 10 μM desipramine.
Excel and GraphPad Prism software were used for data calculation and analysis. IC50 values were converted to Ki values using the Cheng-Prusoff equation. The Ki values for the hNET are reported below in Table 1.

[2] = molecular target: T2, human serotonin transporter (Homo sapiens, UniProt P31645); assay: hSERT receptor binding ([125I]-RTI-55, membranes of transfected HEK-293 cells); conditions: 50 pM [125I]-RTI-55, 90 min room temperature; IC50 converted by Cheng-Prusoff
T2 construct: host or cells: HEK-293
T2 sequence (P31645 whole entry): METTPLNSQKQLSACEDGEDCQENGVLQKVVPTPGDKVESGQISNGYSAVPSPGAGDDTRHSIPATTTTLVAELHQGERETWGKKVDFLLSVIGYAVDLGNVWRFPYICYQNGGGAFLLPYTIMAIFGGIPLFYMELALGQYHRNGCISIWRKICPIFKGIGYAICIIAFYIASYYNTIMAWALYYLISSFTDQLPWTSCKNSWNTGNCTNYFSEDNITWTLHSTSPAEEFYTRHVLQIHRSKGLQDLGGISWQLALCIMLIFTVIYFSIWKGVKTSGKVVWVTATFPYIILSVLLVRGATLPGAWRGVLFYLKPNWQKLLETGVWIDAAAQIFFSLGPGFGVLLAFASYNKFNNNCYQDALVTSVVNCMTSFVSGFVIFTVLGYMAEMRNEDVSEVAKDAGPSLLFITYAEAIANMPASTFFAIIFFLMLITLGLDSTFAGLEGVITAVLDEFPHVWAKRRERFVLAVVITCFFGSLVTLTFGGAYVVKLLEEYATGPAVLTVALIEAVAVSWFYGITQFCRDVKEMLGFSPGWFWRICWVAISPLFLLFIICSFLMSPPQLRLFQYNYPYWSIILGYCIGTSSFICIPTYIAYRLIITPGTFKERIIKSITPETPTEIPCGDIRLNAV
Procedure: as §1, with “serotonin” for “norepinephrine”, “Group.” for “group.”, “mL” for “ml”, “Setting” for “setting”, “seconds.” for “sec.”, “(˜2.5 mg/mL” for “(5 mg/ml”
Assays were set up in FlashPlates pre-coated with 0.1% PEI in a total volume of 250 μL containing: drug (10^−5M to 10^−12M), cell membranes, and 50 pM [^125I]-RTI-55 (Perkin Elmer, NEX-272; specific activity 2200 Ci/mmol). The reaction was incubated and gently agitated for 90 minutes at room temperature, and terminated by removal of assay volume. Plates were covered, and bound [^125I]-RTI-55 was determined using a Wallac Trilux Beta Plate Counter. Test compounds were run in duplicate, and specific binding was defined as the difference between binding in the presence and absence of 10 μM citalopram.
Excel and GraphPad Prism software were used for data calculation and analysis. IC50 values were converted to Ki values using the Cheng-Prusoff equation. The Ki values for the hSERT are reported below in Table 1.

T1 sequence (P23975 whole entry): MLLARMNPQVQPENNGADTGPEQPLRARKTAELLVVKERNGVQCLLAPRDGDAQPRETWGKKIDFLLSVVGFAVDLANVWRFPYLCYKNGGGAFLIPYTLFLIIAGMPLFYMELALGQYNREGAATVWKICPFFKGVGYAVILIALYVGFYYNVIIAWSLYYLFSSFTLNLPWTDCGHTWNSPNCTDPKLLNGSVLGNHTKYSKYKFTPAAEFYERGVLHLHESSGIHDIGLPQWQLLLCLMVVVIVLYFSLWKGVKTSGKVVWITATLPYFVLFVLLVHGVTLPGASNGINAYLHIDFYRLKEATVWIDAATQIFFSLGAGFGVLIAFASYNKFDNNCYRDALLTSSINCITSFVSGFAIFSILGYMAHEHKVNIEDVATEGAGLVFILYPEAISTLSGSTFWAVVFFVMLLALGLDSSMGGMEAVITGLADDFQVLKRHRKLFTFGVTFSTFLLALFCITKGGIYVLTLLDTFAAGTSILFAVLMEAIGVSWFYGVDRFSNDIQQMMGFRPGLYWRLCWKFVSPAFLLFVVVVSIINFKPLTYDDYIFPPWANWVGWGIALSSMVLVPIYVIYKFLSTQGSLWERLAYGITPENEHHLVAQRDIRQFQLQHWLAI

Compound	Ki [1] [µM]	Ki [2] [µM]
Fc1cc2nc(N3CCNCC3)nc(-c3c(F)cccc3F)c2cc1F [Example 146, 4-(2,6-Difluoro-phenyl)-6,7-difluoro-2-piperazin-1-yl-quinazoline]	0.0315	0.019
C[C@H]1CNCCN1c1nc(-c2c(F)cccc2F)c2ccccc2n1 [Example 127, S-4-(2,6-Difluoro-phenyl)-2-(2-methyl-piperazin-1-yl)-quinazoline]	0.0339	0.0586
CC(C)[C@H]1CNCCN1c1nc(-c2cccc(F)c2F)c2ccccc2n1 [Example 166, S-4-(2,3-Difluoro-phenyl)-2-(2-isopropyl-piperazin-1-yl)-quinazoline]	0.0797	0.185
Clc1ccc(Cl)c(-c2nc(N3CCNCC3)nc3ccccc23)c1 [Example 125, 4-(2,5-dichloro-phenyl)-2-piperazin-1-yl-quinazoline]	0.0322	0.636
Clc1cccc(-c2nc(N3CCNCC3)nc3ccccc23)c1 [Example 113, 4-(3-chloro-phenyl)-2-piperazin-1-yl-quinazoline]	0.0286	0.119
Fc1cccc(F)c1-c1nc(NC2CCNCC2)nc2ccccc12 [Example 148, [4-(2,6-Difluoro-phenyl)-quinazolin-2-yl]-piperidin-4-yl-amine]	0.267	4.06
CNC1CCN(c2nc(-c3c(F)cccc3F)c3ccccc3n2)C1 (stereo not drawn) [Example 149, {1-[4-(2,6-Difluoro-phenyl)-quinazolin-2-yl)-pyrrolidin-3-yl}-methyl-amine]	0.135	1.62
CNC1CCN(c2nc(-c3ccc(F)cc3F)c3ccccc3n2)C1 (stereo not drawn) [Example 150, {1-[4-(2,4-Difluoro-phenyl)-quinazolin-2-yl]-pyrrolidin-3-yl}-methyl-amine]	0.0415	2.7
N[C@@H]1CCN(c2nc(-c3c(F)cccc3F)c3ccccc3n2)C1 [Example 95, R-1-[4-(2,6-Difluoro-phenyl)-quinazolin-2-yl]-pyrrolidin-3-ylamine]	0.0769	0.322
CNC1CCN(c2nc(-c3cccc(F)c3F)c3ccccc3n2)C1 (stereo not drawn) [Example 157, {1-[4-(2,3-Difluoro-phenyl)-quinazolin-2-yl]-pyrrolidin-3-yl}-methyl-amine]	0.148	4.25
Fc1ccc(-c2nc(N3CCNCC3)nc3cc(F)ccc23)c(F)c1 [Example 140, 4-(2,4-Difluoro-phenyl)-7-fluoro-2-piperazin-1-yl-quinazoline]	0.0283	0.0167
Clc1ccc2c(-c3ccccc3)nc(N3CCNCC3)nc2c1 [Example 89, 7-Chloro-4-phenyl-2-piperazin-1-yl-quinazoline]	0.049	0.11
Fc1cccc(F)c1-c1nc(N[C@@H]2CCNC2)nc2ccccc12 [Example 99, R-[4-(2,6-Difluoro-phenyl)-quinazolin-2-yl]-pyrrolidin-3-yl-amine]	0.0457	2.9
C[C@@H]1CNCCN1c1nc(-c2cccc(F)c2F)c2ccc(F)cc2n1 [Example 130, R-4-(2,3-Difluoro-phenyl)-7-fluoro-2-(2-methyl-piperazin-1-yl)-quinazoline]	0.0247	0.0443
Fc1cc2nc(N3CCNCC3)nc(-c3cccc(F)c3F)c2cc1F [Example 123, 4-(2,3-Difluoro-phenyl)-6,7-difluoro-2-piperazin-1-yl-quinazoline]	0.0285	0.0472
NCCCNc1nc(-c2ccc(F)cc2F)c2ccccc2n1 [Example 152, N1-[4-(2,4-Difluoro-phenyl)-quinazolin-2-yl]-propane-1,3-diamine]	0.0258	> 10
Fc1ccc2c(-c3ccc(Cl)cc3Cl)nc(N3CCNCC3)nc2c1 [Example 120, 4-(2,4-Dichloro-phenyl)-7-fluoro-2-piperazin-1-yl-quinazoline]	0.095	0.0341
Fc1ccc(-c2nc(NCC3CCNC3)nc3ccccc23)c(F)c1 (stereo not drawn) [Example 155, [4-(2,4-Difluoro-phenyl)-quinazolin-2-yl]-pyrrolidin-3-ylmethyl-amine]	0.425	> 10
Fc1ccccc1-c1nc(N2CCNCC2)nc2ccc(Cl)cc12 [Example 129, 4-(2-Fluoro-phenyl)-6-chloro-2-piperazin-1-yl-quinazoline]	0.0256	0.0084
Fc1ccc(-c2nc(NC3CCNCC3)nc3ccccc23)c(F)c1 [Example 154, [4-(2,4-Difluoro-phenyl)-quinazolin-2-yl]-piperidin-4-yl-amine]	0.0581	5.37
CC[C@H]1CNCCN1c1nc(-c2c(F)cccc2F)c2ccccc2n1 [Example 164, S-4-(2,6-Difluoro-phenyl)-2-(2-ethyl-piperazin-1-yl)-quinazoline]	0.0318	0.018
Clc1ccc2nc(N3CCNCC3)nc(-c3ccccc3)c2c1 [Example 128, 6-Chloro-4-phenyl-2-piperazin-1-yl-quinazoline]	0.0355	0.0114

Compounds with a lower Ki [1], results first:

Ki [1] [µM]	Ki [2] [µM]	Compound
0.0075	4.87	Fc1cccc(F)c1-c1nc(N[C@H]2CCNC2)nc2ccccc12 [Example 101, S-[4-(2,6-Difluoro-phenyl)-quinazolin-2-yl]-pyrrolidin-3-yl-amine]
0.0166	0.19	Cc1ccc(F)cc1-c1nc(N2CCNCC2)nc2cc(F)ccc12 [Example 137, 7-Fluoro-4-(5-fluoro-2-methyl-phenyl)-2-piperazin-1-yl-quinazoline]
0.0216	0.0281	C[C@H]1CNCCN1c1nc(-c2cccc(F)c2F)c2ccc(F)cc2n1 [Example 124, S-4-(2,3-Difluoro-phenyl)-7-fluoro-2-(2-methyl-piperazin-1-yl)-quinazoline]
0.0237	0.0157	N[C@H]1CCN(c2nc(-c3c(F)cccc3F)c3ccc(F)cc3n2)C1 [Example 94, S-1-[4-(2,6-Difluoro-phenyl)-7-fluoro-quinazolin-2-yl]-pyrrolidin-3-ylamine]
0.0146	0.152	COc1cccc(-c2nc(N3CCNCC3)nc3ccccc23)c1 [Example 90, 4-(3-methoxy-phenyl)-2-piperazin-1-yl-quinazoline]
0.0183	0.0497	C[C@H]1CNCCN1c1nc(-c2ccccc2)c2ccc(F)cc2n1 [Example 106, S-′7-Fluoro-2-(2-methyl-piperazin-1-yl)-4-phenyl-quinazoline]
0.0179	0.0093	Fc1ccc(-c2nc(N[C@@H]3CCNC3)nc3cc(F)ccc23)c(F)c1 [Example 143, R-[4-(2,4-Difluoro-phenyl)-7-fluoro-quinazolin-2-yl]-pyrrolidin-3-yl-amine]
0.02	0.0991	C[C@@H]1CNCCN1c1nc(-c2cccc(F)c2F)c2ccccc2n1 [Example 87, R-4-(2,3-Difluoro-phenyl)-2-(2-methyl-piperazin-1-yl)-quinazoline]
0.0077	0.0777	Fc1ccc(-c2nc(N3CCNCC3)nc3ccccc23)cc1F [Example 108, 4-(3,4-difluoro-phenyl)-2-piperazin-1-yl-quinazoline]
0.0234	0.0265	S-[4-(2,4-Difluoro-phenyl)-7-fluoro-quinazolin-2-yl]-pyrrolidin-3-yl-amine [Example 144]
0.0157	0.0325	Fc1ccc2nc(N3CCNCC3)nc(-c3cccc(F)c3F)c2c1 [Example 121, 4-(2,3-Difluoro-phenyl)-6-fluoro-2-piperazin-1-yl-quinazoline]
0.0166	0.121	Cc1cccc2nc(N3CCNCC3)nc(-c3ccccc3)c12 [Example 145, 5-Methyl-4-phenyl-2-piperazin-1-yl-quinazoline]
0.0194	0.0641	C[C@H]1CNCCN1c1nc(-c2ccc(F)cc2F)c2ccccc2n1 [Example 82, S-4-(2,4-Difluoro-phenyl)-2-(2-methyl-piperazin-1-yl)-quinazoline]
0.0166	0.065	C[C@@H]1CNCCN1c1nc(-c2ccccc2)c2ccc(F)cc2n1 [Example 105, R-7-Fluoro-2-(2-methyl-piperazin-1-yl)-4-phenyl-quinazoline]
